Test results published in patent publication US20220347167A1, “A NEW TREATMENT FOR MEIBOMIAN GLAND DYSFUNCTION” (The Schepens Eye Research Institute, Inc., priority 2019, published 2022).

Columns and labels:
[1] = Percentage of weight gain in ApoE −/− mice; assay type: in vivo, mouse; details: Roxa 10 mg/kg subcutaneous, three times per week for 12 weeks, vs vehicle, p<0.05
Procedure: The whole blood samples of mice were collected by cardiac puncture after sacrificing. The blood samples were allowed to clot by leaving it undisturbed at room temperature for 15 minutes. The clot was removed by centrifuging at 1,000-2,000×g for 10 minutes in a refrigerated centrifuge. The resulting supernatant was designated serum. Then the cholesterol level in the serum was evaluated by using a commercially available cholesterol fluorometric assay kit (#10007640, Cayman Chemical, Mich.). The weight of each mice was measured before and after the experiment. The percentage of weight gain was compared between the Roxa-treated mice and the vehicle-treated mice.
At the beginning of the study, the 16 ApoE−/− mice and 4 wild-type (WT) C57BL/6J mice, 12 weeks of age, were measured for their weight, tear volume, corneal fluorescein staining and tear breakup time (TBUT). The ApoE −/− mice were randomly divide into 2 groups (n=8 mice/group) and treated with vehicle control (2% DMSO in sterile saline, subcutaneous injection) or Roxa (10 mg/kg, subcutaneous injection). The injections were administrated three times per week (on Monday, Wednesday, and Friday mornings) for 12 weeks. […] At the end of the study, the weight, tear volume, corneal fluorescein staining and tear breakup time (TBUT) were measured again. […]

IHMGECs [2] = assay: Intracellular pH in IHMGECs; assay type: cell-based, human; details: exposure to Roxa, in vitro
From the text: It was recently discovered that a hypoxic environment is beneficial for meibomian gland (MG) function. The mechanism(s) underlying this effect was unknown, but may be due to an increase in the levels of hypoxia-inducible factor 1α (HIF1a). In other tissues, HIF1α is the primary regulator of cellular responses to hypoxia and HIF1α expression can be induced by multiple stimuli, including hypoxia and low oxygen mimetic agents. In the current studies described in this Example, human eyelid tissues were stained for HIF1α. Immortalized human MG epithelial cells (IHMGECs) were cultured for varying time periods under normoxic (21% O2) or hypoxic (1% O2) conditions, in the presence or absence of the low oxygen mimetic agent Roxadustat (Roxa). IHMGECs were then processed for the analysis of cell number, HIF1α expression, lipid-containing vesicles, neutral and polar lipid content, DNase II activity and intracellular pH. […] The data support that the beneficial effect of hypoxia on the MG is mediated through an increased expression of HIF1α.

HMGECs = assay: Effect of low oxygen mimetic drugs on HMGEC function / lipid induction; assay type: cell-based, human
DNase II = DNase II activity by single radial enzyme diffusion assay (SREDA) in IHMGECs; assay type: cell-based, human
Procedure: (§1) After being treated with 21% O2, 1% O2, 10 μM Roxa or a combination for 10 days, cell numbers were counted with a hemocytometer and the cell lysates and cell culture supernatants were collected, as previously described in Liu et al. (2019) The ocular surface 17(2):310-317. DNase II activity in fresh samples was analyzed by SREDA in agarose gels according to published protocols in Liu et al. (2019) The ocular surface 17(2):310-317 and Oka et al. (2012) Nature 485:251-255. Cell lysates and culture media were used to measure the DNase II activity inside and outside of the cells, respectively [Liu et al. (2019) The ocular surface 17(2):310-317]. After incubation for 3-24 hours at 37° C., the area of the dark circle in the gel was measured under an UV trans-illuminator at 312 nm. For comparison between conditions, values were normalized to cell number.
(§2) Low O2 increases DNase II activity and promotes cell terminal differentiation of IHMGECs (Liu et al. Ocul Surf 2019; 17:310-317). To determine whether Roxa treatment can reproduce this hypoxic effect, IHMGECs were treated with Roxa in both normoxic and 1% O2 conditions for 10 days, prior to counting cell numbers and analyzing DNase II activity in cell lysates and supernatants.

IHMGECs [3] = assay: Cell number of IHMGECs (hemocytometer); assay type: cell-based, human
Procedure: as §1, §2

[4] = Roxa alone, 21% O2, 10 days, normalized to cell number

In the case of `Cc1nc(C(=O)NCC(=O)O)c(O)c2ccc(Oc3ccccc3)cc12` [Roxa, roxadustat], the “percentage of weight gain” value [1] is reported as “significantly reduced”, the “pH in IHMGECs” value (IHMGECs [2]) is reported as “decreases” and the “lipid-inducing effect in HMGECs compared with other low oxygen mimetic drugs” value (HMGECs) is reported as “stronger lipid-inducing effect”. The “DNase II activity in IHMGEC culture supernatants” value (DNase II; [4]) was “significantly increased”, the “DNase II activity in IHMGEC lysates” value (DNase II; [4]) was “significantly increased” and the “magnitude of DNase II activity increase, Roxa and low O2 combination” value (DNase II; Roxa in 1% O2, 10 days, lysates and supernatants, vs 1% O2 alone and Roxa alone) was “greatest”. The “cell number of IHMGECs” value (IHMGECs [3]; Roxa alone, 21% O2, 10 days) was “significant decreases” and the “cell number of IHMGECs, combination of Roxa and 1% O2” value (IHMGECs [3]; Roxa in 1% O2, 10 days) was “significant decreases”.
